Source: patent publication US7090790B2, “Chemiluminescent composition producing white light” (priority 2004, dated 2006)

Tests used:
[1] = Intensity of white light, Experimental Example 2 (−25° F.); settings: low temperature
Method: The oxalate solutions and the activator solutions prepared in Examples 1 and 2, and Comparative Examples 1 and 2 were mixed in a volume ratio of 3:1 to chemiluminescent compositions, respectively.
The procedure was repeated in the same manner as in Experimental Example 1, except that the temperature of the thermostat was set to −25° F.

[2] = Solubility in chloroform at 20° C., Formula 2 vs Formula 3; assay type: physicochemical; settings: in 100 mL of chloroform at 20° C.

Row | SMILES | precipitation of the dye in the chemiluminescent composition [1] | Solubility, 1,6,7,12-tetrahaloperylenedicarboximide of Formula 3 (X is Cl) [2] [g]
1 | CCCCCCCCCCCCN1C(=O)c2cc(Cl)c3c4c(Cl)cc5c6c(cc(Cl)c(c7c(Cl)cc(c2c37)C1=O)c64)C(=O)N(CCCCCCCCCCCC)C5=O [Dodecyl (Formula 3), N,N′-didodecyl-1,6,7,12-tetrachloroperylene-3,4,9,10-dicarboximide] | no precipitates were formed even at low temperature | 65
2 | CCCCCCN1C(=O)c2cc(Cl)c3c4c(Cl)cc5c6c(cc(Cl)c(c7c(Cl)cc(c2c37)C1=O)c64)C(=O)N(CCCCCC)C5=O [Hexyl (Formula 3), N,N′-dihexyl-1,6,7,12-tetrachloroperylene-3,4,9,10-dicarboximide] | – | 72
